Measured values from patent publication US20250353873A1, “COMPOUNDS AND METHODS FOR MODULATING APOE EXPRESSION” (Ionis Pharmaceuticals, Inc., priority 2024, published 2025).
Strand notation (5' to 3'): a small letter for the sugar, then the base; units joined by * are phosphorothioate-linked, units joined directly phosphodiester-linked; [ ] holds rarer units or linkages, { } end groups; capitals alone tell only the bases. [ms] = mesyl phosphoramidate linkage; e = 2'-O-(2-methoxyethyl) (MOE); [5mC] = 5-methylcytosine; d = 2'-deoxy (DNA)

Legend:
human APOE RNA [1] = assay: Activity in APOE 1549 knock-in mice, single ICV bolus, 2 weeks (Example 7); type: in vivo; conditions: single ICV bolus of 300 μg, two weeks post treatment, Table 16
Protocol: Modified oligonucleotides described above were tested in APOE knock-in mice.
APOE knock-in mice (model 41549) were obtained from Taconic Biosciences. APOE knock-in mice were divided into groups of 2 mice each. Each mouse received a single intracerebroventricular (ICV) bolus of 300 μg of modified oligonucleotide. A group of 4 mice received a single ICV bolus with PBS as a negative control.
Two weeks post treatment, mice were sacrificed and RNA was extracted from cortical brain tissue and spinal cord for quantitative real-time RT-PCR analysis of RNA expression of APOE using primer probe set RTS3073 (described herein above). APOE RNA levels were normalized to mouse Ppia. Mouse Ppia was amplified using primer probe set m_cyclo24 (forward sequence TCGCCGCTTGCTGCA, designated herein as SEQ ID NO: 16; reverse sequence ATCGGCCGTGATGTCGA, designated herein as SEQ ID NO: 17; probe sequence […], designated herein as SEQ ID NO: 18). Results are presented as percent human APOE RNA relative to the amount of human APOE RNA in PBS treated animals, (% control). Each experiment is identified in separate tables below.

human APOE RNA [2] = assay: Activity in APOE 1549 knock-in mice, single ICV bolus, 4 weeks (Example 8); type: in vivo; conditions: n = 2, single ICV bolus of 300 μg, four weeks post treatment, Table 18
Protocol: Modified oligonucleotides described above were tested in the 1549 APOE knock-in mouse model described above.
APOE knock-in mice were divided into groups of either 2 or 6 mice each as described in the tables below. Each mouse received a single intracerebroventricular (ICV) bolus of 300 μg of modified oligonucleotide. A group of either 3 or 6 mice received a single ICV bolus with PBS as a negative control.
Four weeks post treatment, mice were sacrificed and RNA was extracted from cortical brain tissue and spinal cord for quantitative real-time RT-PCR analysis of RNA expression of APOE using primer probe set RTS3073 (described herein above). APOE RNA levels were normalized to mouse Ppia. Mouse Ppia was amplified using primer probe set m_cyclo24 (described herein above). Results are presented as percent human APOE RNA relative to the amount of human APOE RNA in PBS treated animals, (% control). Each experiment is identified in separate tables below.

human APOE RNA [3] = assay: Dose-dependent inhibition of human APOE RNA in HepG2 cells, electroporation, 24 hours (Example 6); type: cell-based
Procedure, shortened: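 HepG2 cells, 50,000 per well, electroporated with various oligonucleotide concentrations. APOE RNA measured with primer probe set RTS3073, normalized to GAPDH (RTS104), expressed as % of untreated control; IC50 then calculated.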

1601949: 6-10-4 MOE gapmer CTGCAATGCATTAGAAACCT, linkages sooooossssssssssoss (antisense e[5mC]*eTeGe[5mC]eAeAdT*dG*d[5mC]*dA*dT*dT*dA*dG*dA*dA*eAe[5mC]*e[5mC]*eT) [compound 1601949]
APOE RNA (% control) Cortex (human APOE RNA [1]): 77 % control | APOE RNA (% control) Spinal Cord (human APOE RNA [1]): 92 % control

1601957: 6-10-4 MOE gapmer TCCTCATTTTAAAGTTCTCC, linkages sooooossssssssssoss (antisense eT*e[5mC]e[5mC]eTe[5mC]eAdT*dT*dT*dT*dA*dA*dA*dG*dT*dT*e[5mC]eT*e[5mC]*e[5mC]) [compound 1601957]
APOE RNA (% control) Cortex (human APOE RNA [1]): 101 % control | APOE RNA (% control) Spinal Cord (human APOE RNA [1]): 90 % control

1601958: 6-10-4 MOE gapmer CTTCACATTCTAAGCTCCAA, linkages sooooossssssssssoss (antisense e[5mC]*eTeTe[5mC]eAe[5mC]dA*dT*dT*d[5mC]*dT*dA*dA*dG*d[5mC]*dT*e[5mC]e[5mC]*eA*eA) [compound 1601958]
APOE RNA (% control) Cortex (human APOE RNA [1]): 109 % control | APOE RNA (% control) Spinal Cord (human APOE RNA [1]): 102 % control

1601956: 6-10-4 MOE gapmer AAGTTCTCCAATCGACGGCT, linkages sooooossssssssssoss (antisense eA*eAeGeTeTe[5mC]dT*d[5mC]*d[5mC]*dA*dA*dT*d[5mC]*dG*dA*d[5mC]*eGeG*e[5mC]*eT) [compound 1601956]
APOE RNA (% control) Cortex (human APOE RNA [1]): 104 % control | APOE RNA (% control) Spinal Cord (human APOE RNA [1]): 107 % control

1736521: 6-10-4 MOE gapmer CTTGGTGAATCTTTATTAAA, linkages sosssszzzsssssssoss (e[5mC]*eTeT*eG*eG*eT*dG[ms]dA[ms]dA[ms]dT*d[5mC]*dT*dT*dT*dA*dT*eTeA*eA*eA) [compound 1736521]
APOE RNA (% control) Cortex (human APOE RNA [2]; cortex): 52 % control | APOE RNA (% control) Spinal Cord (human APOE RNA [2]; spinal cord): 50 % control | IC50 (human APOE RNA [3]): 400 nM | APOE RNA (% UTC) (human APOE RNA [3]; 5 nM): 99 % UTC | APOE RNA (% UTC) (human APOE RNA [3]; 13 nM): 109 % UTC | APOE RNA (% UTC) (human APOE RNA [3]; 33 nM): 84 % UTC | APOE RNA (% UTC) (human APOE RNA [3]; 82 nM): 69 % UTC | APOE RNA (% UTC) (human APOE RNA [3]; 205 nM): 65 % UTC | APOE RNA (% UTC) (human APOE RNA [3]; 512 nM): 40 % UTC | APOE RNA (% UTC) (human APOE RNA [3]; 1,280 nM): 34 % UTC | APOE RNA (% UTC) (human APOE RNA [3]; 3,200 nM): 18 % UTC | APOE RNA (% UTC) (human APOE RNA [3]; 8,000 nM): 10 % UTC | APOE RNA (% UTC) (human APOE RNA [3]; 20,000 nM): 3 % UTC

1601943: 6-10-4 MOE gapmer GTCCTCATTTTAAAGTTCTC, linkages sooooossssssssssoss (antisense eG*eTe[5mC]e[5mC]eTe[5mC]dA*dT*dT*dT*dT*dA*dA*dA*dG*dT*eTe[5mC]*eT*e[5mC]) [compound 1601943]
APOE RNA (% control) Cortex (human APOE RNA [1]): 115 % control | APOE RNA (% control) Spinal Cord (human APOE RNA [1]): 113 % control
